Columns and labels:
Details in all cases: 48 h
SEM cells [1] = assay: cell viability relative to DMSO control; higher = less cytotoxic
How it was run: (§1)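 Viability is a per-plate percentage relative to DMSO wells, with cell-free wells as background. CellTiter-Glo One luminescence was read after 48 h at 37°C on 1536-well plates (5 μl) of NOMO1 or SEM (500 cells/well) or P12-Ichikawa (1000 cells/well) leukemia cells. The cells had been adapted for at least four passages in each medium and pin-dosed with library compounds in DMSO from 47 μM to 0.79 nM in 11 threefold steps.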

SEM cells [2] = assay: AUC of viability dose-response curve (% viability x log10 dose units); higher = less sensitive
How it was run: (§2)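 Leukemia cells adapted to each medium were seeded in 1536-well plates (500 or 1000 cells/well). They were dosed with library compounds in DMSO at 11 threefold doses, 47 μM to 0.79 nM, for 48 h at 37°C. CellTiter-Glo One luminescence was normalised per plate to DMSO and cell-free wells. Area under the curve was integrated by trapezoidal rule over log10 doses on a four-parameter log-logistic fit; curves exceeding full viability were scaled and curves failing quality control removed.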

P12-Ichikawa [3] = assay: as above
How it was run: as §2

NOMO1 [4] = assay: as above
How it was run: as §2

P12-Ichikawa [5] = assay: cell viability relative to DMSO control; higher = less cytotoxic
How it was run: as §1

NOMO1 [6] = assay: as above
How it was run: as §1

OCCN1C[C@H](O)[C@@H](O)[C@H](O)[C@H]1CO
SEM cells [1], HPLM + 10% dialyzed FBS
Details	cell viability [%]
0.000781 µM	93.6
0.00234 µM	116
0.00702 µM	129
0.0211 µM	118
0.0632 µM	86.6
0.19 µM	114
0.569 µM	138
1.71 µM	125
5.12 µM	134
15.4 µM	136
46.1 µM	123

AUC of viability dose-response curve
Details	NOMO1 [4]	P12-Ichikawa [3]	SEM cells [2]
HPLM + 10% dialyzed FBS	296	365	432
RPMI 5 mM glucose + 10% FBS	266	371	417
RPMI 5 mM glucose + 10% dialyzed FBS	296	377	384

C[C@]\12CCC(=O)\C=C1[C@@H]3C[C@@H]3[C@@H]4[C@@H]2CC[C@@]5(C)[C@H]4[C@@H]6C[C@@H]6[C@@]57CCC(=O)O7
cell viability [%], SEM cells [1]
Details	HPLM + 10% dialyzed FBS	RPMI 5 mM glucose + 10% FBS
0.000781 µM	89.1	98.6
0.00234 µM	97.2	111
0.00702 µM	107	115
0.0211 µM	123	117
0.0632 µM	120	137
0.19 µM	112	146
0.569 µM	106	124
1.71 µM	107	134
5.12 µM	133	119
15.4 µM	107	125
46.1 µM	104	146

AUC of viability dose-response curve
Details	NOMO1 [4]	P12-Ichikawa [3]	SEM cells [2]
HPLM + 10% dialyzed FBS	469	474	450
RPMI 5 mM glucose + 10% FBS	477	468	451
RPMI 5 mM glucose + 10% dialyzed FBS	471	471	468

CS[C@H]1SC[C@@H]2C(=O)N(C)[C@H](C(C)C)C(=O)OC[C@H](NC(=O)c3cnc4ccccc4n3)C(=O)N[C@H](C)C(=O)N(C)[C@H]1C(=O)N(C)[C@H](C(C)C)C(=O)OC[C@H](NC(=O)c1cnc3ccccc3n1)C(=O)N[C@H](C)C(=O)N2C
cell viability [%]
Details	NOMO1 [6]	P12-Ichikawa [5]	SEM cells [1]
HPLM + 10% dialyzed FBS, 0.000781 µM	90.5	93.5	81.1
HPLM + 10% dialyzed FBS, 0.00234 µM	92.4	97.9	59
HPLM + 10% dialyzed FBS, 0.00702 µM	81	97.7	37.5
HPLM + 10% dialyzed FBS, 0.0211 µM	34	59	14.2
HPLM + 10% dialyzed FBS, 0.0632 µM	7.25	6.91	7.27
HPLM + 10% dialyzed FBS, 0.19 µM	7.68	9.39	7.08
HPLM + 10% dialyzed FBS, 0.569 µM	7.01	11.9	7.54
HPLM + 10% dialyzed FBS, 1.71 µM	6.88	11.9	7.91
HPLM + 10% dialyzed FBS, 5.12 µM	6.12	9.92	7.3
HPLM + 10% dialyzed FBS, 15.4 µM	5.83	9.92	6
HPLM + 10% dialyzed FBS, 46.1 µM	3.83	13.2	5.18
RPMI 5 mM glucose + 10% FBS, 0.000781 µM	86.1	88	76.5
RPMI 5 mM glucose + 10% FBS, 0.00234 µM	83	98.9	47.9
RPMI 5 mM glucose + 10% FBS, 0.00702 µM	92.4	74.9	25.6
RPMI 5 mM glucose + 10% FBS, 0.0211 µM	44.5	44.9	9.07
RPMI 5 mM glucose + 10% FBS, 0.0632 µM	5.63	6.52	6.95
RPMI 5 mM glucose + 10% FBS, 0.19 µM	5.77	7.51	7.44
RPMI 5 mM glucose + 10% FBS, 0.569 µM	5.98	8.83	7.22
RPMI 5 mM glucose + 10% FBS, 1.71 µM	5.95	9.76	7.34
RPMI 5 mM glucose + 10% FBS, 5.12 µM	5.48	7.33	7.64
RPMI 5 mM glucose + 10% FBS, 15.4 µM	4.23	7.34	6.82
RPMI 5 mM glucose + 10% FBS, 46.1 µM	4.39	6.52	5
RPMI 5 mM glucose + 10% dialyzed FBS, 0.000781 µM	92.6	88.5	66.4
RPMI 5 mM glucose + 10% dialyzed FBS, 0.00234 µM	81.1	91.2	44.7
RPMI 5 mM glucose + 10% dialyzed FBS, 0.00702 µM	83.2	68.6	34.2
RPMI 5 mM glucose + 10% dialyzed FBS, 0.0211 µM	49.8	29.6	11.8
RPMI 5 mM glucose + 10% dialyzed FBS, 0.0632 µM	5.73	6.86	7.65
RPMI 5 mM glucose + 10% dialyzed FBS, 0.19 µM	5.24	8.69	8.72
RPMI 5 mM glucose + 10% dialyzed FBS, 0.569 µM	5.79	9.15	8.82
RPMI 5 mM glucose + 10% dialyzed FBS, 1.71 µM	5.79	9.6	8.65
RPMI 5 mM glucose + 10% dialyzed FBS, 5.12 µM	5.29	8.79	8.6
RPMI 5 mM glucose + 10% dialyzed FBS, 15.4 µM	4	11.4	7.68
RPMI 5 mM glucose + 10% dialyzed FBS, 46.1 µM	3.33	11.8	5.52

AUC of viability dose-response curve
Details	HPLM + 10% dialyzed FBS	RPMI 5 mM glucose + 10% FBS	RPMI 5 mM glucose + 10% dialyzed FBS
NOMO1 [4]	140	142	141
P12-Ichikawa [3]	176	148	140

CN(C)CCCN\C1=C\2C(=O)N(C)C(=O)\N=C2N(C)C3=C1C=CC=C3
AUC of viability dose-response curve
Details	NOMO1 [4]	P12-Ichikawa [3]	SEM cells [2]
HPLM + 10% dialyzed FBS	446	442	396
RPMI 5 mM glucose + 10% FBS	446	421	394
RPMI 5 mM glucose + 10% dialyzed FBS	432	429	397

O=C(Nc1cccc(Br)c1)c1cccc([S+](=O)([O-])N2CCCCCC2)c1
AUC of viability dose-response curve
Details	NOMO1 [4]	P12-Ichikawa [3]	SEM cells [2]
HPLM + 10% dialyzed FBS	462	450	447
RPMI 5 mM glucose + 10% FBS	460	457	436
RPMI 5 mM glucose + 10% dialyzed FBS	470	464	441

CCOC(=O)[C@H](CCc1ccccc1)N[C@H]1CS[C@H](c2cccs2)CN(CC(=O)O)C1=O.Cl
AUC of viability dose-response curve
Details	NOMO1 [4]	P12-Ichikawa [3]	SEM cells [2]
HPLM + 10% dialyzed FBS	384	400	461
RPMI 5 mM glucose + 10% FBS	408	401	437
RPMI 5 mM glucose + 10% dialyzed FBS	395	421	468

NC(=O)c1noc([C@H](CCCC2CCCCC2)CC(=O)NO)n1
AUC of viability dose-response curve
Details	NOMO1 [4]	P12-Ichikawa [3]	SEM cells [2]
HPLM + 10% dialyzed FBS	431	441	428
RPMI 5 mM glucose + 10% FBS	424	422	414
RPMI 5 mM glucose + 10% dialyzed FBS	441	421	429

Source: the supplement of paper PMC11451515
